Assays:
[1] = Cytoprotective activity against H2O2-induced cytotoxicity in human EAhy926 cells at 12.5 uM pre-incubated for 24 hrs before H2O2 challenge for 12 hrs by MTT assay; format: functional, EA.hy 926
[2] = Anti-platelet activity in rabbit platelet-rich plasma assessed as inhibition of ADP-induced platelet aggregation incubated for 5 mins at 37 degC by aggregometry; format: functional; settings: Oryctolagus cuniculus
[3] = Anti-platelet activity in rabbit platelet-rich plasma assessed as inhibition of ADP-induced platelet aggregation at 25 uM incubated for 5 mins at 37 degC by aggregometry; format: functional; settings: Oryctolagus cuniculus
[4] = Cytoprotective activity against H2O2-induced cytotoxicity in human EAhy926 cells pre-incubated for 24 hrs before H2O2 challenge for 12 hrs by MTT assay; format: functional, cell-based; settings: EA.hy 926
[5] = Cytoprotective activity against H2O2-induced cytotoxicity in human EAhy926 cells at 25 uM pre-incubated for 24 hrs before H2O2 challenge for 12 hrs by MTT assay; format: functional, EA.hy 926
[6] = Anti-platelet activity in rabbit platelet-rich plasma assessed as inhibition of ADP-induced platelet aggregation at 50 uM incubated for 5 mins at 37 degC by aggregometry; format: functional; settings: Oryctolagus cuniculus
[7] = Anti-platelet activity in rabbit platelet-rich plasma assessed as inhibition of ADP-induced platelet aggregation at 12.5 uM incubated for 5 mins at 37 degC by aggregometry; format: functional; settings: Oryctolagus cuniculus
[8] = Anti-platelet activity in rabbit platelet-rich plasma assessed as inhibition of ADP-induced platelet aggregation at 100 uM incubated for 5 mins at 37 degC by aggregometry; format: functional; settings: Oryctolagus cuniculus
[9] = Cytoprotective activity against H2O2-induced cytotoxicity in human EAhy926 cells at 50 uM pre-incubated for 24 hrs before H2O2 challenge for 12 hrs by MTT assay; format: functional, EA.hy 926
[10] = Cytoprotective activity against H2O2-induced cytotoxicity in human EAhy926 cells at 100 uM pre-incubated for 24 hrs before H2O2 challenge for 12 hrs by MTT assay; format: functional, EA.hy 926

| Compound | IC50 [2] [µM] | Activity [1] [%] | inhibition at 25 µM [3] [%] | EC50 [4] [µM] | Activity [5] [%] | inhibition at 50 µM [6] [%] | inhibition at 12.5 µM [7] [%] | inhibition at 100 µM [8] [%] | Activity [9] [%] | Activity [10] [%] |
| --- | --- | --- | --- | --- | --- | --- | --- | --- | --- | --- |
| O=C(O)/C=C/c1ccc(O)c(O)c1 [CAFFEIC ACID] | – | 16.7 | – | 12.6 | 108.5 | – | – | – | 149.5 | 155.6 |
| COc1cc(/C=C/C(=O)O)cc(OC)c1OC(=O)c1nc(C)c(C)nc1C | 82.3 | 5.7 | 17.4 | 34.7 | 24 | 51.2 | 12 | 52.1 | 96.6 | 163 |
| Cc1nc(C)c(C(=O)Oc2ccc(/C=C/C(=O)O)cc2)nc1C | 37.8 | 34.2 | 53.3 | 38 | 46.6 | 41.7 | 64.3 | 25.3 | 74.1 | 93.2 |
| O=C(O)CCCCC1CCSS1 (stereo not drawn) [LIPOIC ACID, ALPHA] | – | 30.5 | – | 68 | -12.3 | – | – | – | 48.7 | 58.1 |
| CCOC(=O)/C=C/c1ccc(OC(=O)c2nc(C)c(C)nc2C)c(OC)c1 | 58.4 | 52.4 | 37.2 | 38.6 | 53.3 | 49.9 | 31 | 64.4 | 69.7 | 71.6 |
| CCOC(=O)/C=C/c1cc(OC)c(O)c(OC)c1 | – | 4.9 | – | 67.2 | 24.9 | – | – | – | 32 | 69.1 |
| CCOC(=O)/C=C/c1cccc(OC(=O)c2nc(C)c(C)nc2C)c1 | 35.8 | 27.9 | 62.2 | 92.6 | 34.2 | 59.6 | 25.1 | 69.4 | 39.5 | 47 |
| CCOC(=O)/C=C/c1ccc(O)c(O)c1 [ETHYL CAFFEATE] | – | 80.4 | – | 11.6 | 88.4 | – | – | – | 134.8 | 146.9 |
| COc1ccc(/C=C/C(=O)O)c(OC(=O)c2nc(C)c(C)nc2C)c1 | 134 | 39.7 | 35.1 | 115 | -52.1 | 34.1 | 16.5 | 40.9 | 31.6 | 18 |
| Cc1nc(C)c(C(=O)Oc2ccccc2/C=C/C(=O)O)nc1C | 9.6 | 45.7 | 54.8 | 36.7 | 61.8 | 53.8 | 32.9 | 17.2 | 64.9 | 80.1 |
| COc1ccc(/C=C/C(=O)O)cc1O [ISOFERULIC ACID] | – | 34.9 | – | 29.3 | 36.8 | – | – | – | 62.9 | 81.9 |
| CCOC(=O)/C=C/c1ccc(O)c(OC)c1 [ETHYL FERULATE] | 193 | – | 11.5 | – | – | 17.9 | 4 | 26.5 | – | – |
| Cc1nc(C)c(C(=O)Oc2ccc(Cl)cc2/C=C/C(=O)O)nc1C | 57.2 | 6.9 | 38.1 | 95.2 | 26 | 37 | 30 | 74.5 | 23.7 | 52.2 |

More lines, in order of falling IC50 [2], values ahead:

| IC50 [2] [µM] | Compound | Activity [1] [%] | inhibition at 25 µM [3] [%] | EC50 [4] [µM] | Activity [5] [%] | inhibition at 50 µM [6] [%] | inhibition at 12.5 µM [7] [%] | inhibition at 100 µM [8] [%] | Activity [9] [%] | Activity [10] [%] |
| --- | --- | --- | --- | --- | --- | --- | --- | --- | --- | --- |
| 265 | Cc1nc(C)c(C)nc1C [LIGUSTRAZINE] | 11.4 | 8.6 | 83.4 | 13.6 | 15.3 | 3.4 | 19.6 | 22.1 | 40.9 |
| 196 | CCOC(=O)/C=C/c1cc(OC)ccc1OC(=O)c1nc(C)c(C)nc1C | 15.9 | 73.9 | 105 | 23.4 | 72.9 | 70.5 | 60.7 | 27.8 | 46.2 |
| 144 | O=C(O)/C=C/c1ccc(Cn2ccnc2)cc1 [OZAGREL] | – | 4.8 | – | – | 25 | 6.4 | 36.8 | – | – |
| 143 | CCOC(=O)/C=C/c1ccc(OC)c(OC(=O)c2nc(C)c(C)nc2C)c1 | 26.4 | 20.6 | 29.9 | 60.1 | 32.2 | 22.3 | 39.7 | 89 | 117 |
| 130 | CCOC(=O)/C=C/c1ccc(O)cc1 [ETHYL P-COUMARATE] | – | 16.4 | – | – | 25.5 | 5.8 | 37.9 | – | – |
| 116 | O=C(O)/C=C/c1ccccc1O [O-COUMARIC ACID] | – | 21.4 | – | – | 30.5 | 10.8 | 42.9 | – | – |
| 110 | CCOC(=O)/C=C/c1ccccc1OC(=O)c1nc(C)c(C)nc1C | 9.6 | 16.6 | 108 | 17.8 | 39 | 11.8 | 42.4 | 36.9 | 40.9 |
| 84.6 | Cc1nc(C)c(C(=O)Oc2ccc(/C=C/C(=O)O)cc2O)nc1C | 92.8 | 25 | 2.2 | 271.1 | 44.5 | 32.1 | 53.6 | 284.8 | 601.4 |
| 74.8 | O=C(O)/C=C/c1ccc(O)cc1 [COUMARIC ACID] | – | 29.9 | – | – | 53.2 | 17.2 | 54.5 | – | – |
| 67.1 | CCOC(=O)/C=C/c1cc(Cl)ccc1OC(=O)c1nc(C)c(C)nc1C | 64.9 | 36.9 | 36.1 | 62.5 | 44.4 | 26.3 | 61.7 | 33.7 | 11 |
| 49 | COc1ccc(OC(=O)c2nc(C)c(C)nc2C)c(/C=C/C(=O)O)c1 | 21.7 | 46.5 | 48.6 | 45 | 48.8 | 43.4 | 59.8 | 62.9 | 79.2 |
| 44.6 | COc1cc(/C=C/C(=O)O)ccc1OC(=O)c1nc(C)c(C)nc1C | 38.7 | 22.8 | 69.4 | 40.3 | 46.2 | 60.6 | 73.2 | 49.1 | 55.4 |
| 41.8 | COc1ccc(/C=C/C(=O)O)cc1OC(=O)c1nc(C)c(C)nc1C | 41.3 | 53.5 | 8.8 | 128.1 | 59.8 | 21.6 | 75.2 | 159.6 | 216.3 |
| 37.5 | CCOC(=O)/C=C/c1cc(OC)c(OC(=O)c2nc(C)c(C)nc2C)c(OC)c1 | 96.6 | 47.2 | 21.4 | 20.9 | 55.9 | 44 | 59.5 | -13.6 | -47 |
| 28.2 | CCOC(=O)/C=C/c1ccc(OC)cc1OC(=O)c1nc(C)c(C)nc1C | -57.6 | 32.6 | 138 | 16.9 | 18.7 | 84.2 | 47 | 20.7 | 39.9 |
| 26.4 | Cc1nc(C)c(C(=O)Oc2cccc(/C=C/C(=O)O)c2)nc1C | 61.6 | 38.5 | 24 | 64.3 | 28 | 73.4 | 8.2 | 75.3 | 103 |
| 7.6 | COC(=O)[C@H](c1ccccc1Cl)N1CCc2sccc2C1 [CLOPIDOGREL] | – | 77.6 | – | – | 92.3 | 86.9 | 94.5 | – | – |

From ChEMBL document CHEMBL3580595, “Design, synthesis and biological evaluation of novel trimethylpyrazine-2-carbonyloxy-cinnamic acids as potent cardiovascular agents” (Medchemcomm, 2014)
